Data taken from patent US11007162B2, “Methods of reducing small, dense LDL particles” (CymaBay Therapeutics, Inc., priority 2008, dated 2021).

Columns and labels:
[1] = test system: overweight subjects; assay: Second clinical study: LDL particle size pattern and blood chemistry in overweight subjects; format: in vivo, human
Method: A second clinical study to determine the effect of the Compound of Formula II on LDL particle size in overweight subjects was performed. Subjects in this study met the following criteria: Non-Diabetic; untreated or diet-treated, with fasting lipids at initial screening and visit 2 (after 4 week run-in): […] Subjects were males with waist circumference greater than 38″ or females with waist circumference greater than 33″. Data was generated in this second study from 181 subjects. […] Of the 28 subjects that remained in the study in the placebo group, there was a net loss of subjects having LDL pattern A.

[2] = test system: C57BL/6 mice; assay: Intestinal cholesterol absorption by fecal dual isotope ratio method; format: in vivo
Method: This study was designed to examine the effect of Compound II on intestinal cholesterol absorption in mice using the fecal dual isotope ratio method. Eight-week-old male C57BL/6 mice were fed standard mouse chow (control) with no added cholesterol (Harlan Teklad diet T.8604) ad libitum. Mice were randomized into five groups: 1) control, water gavaged daily; 2) compound II gavaged daily (in water) at a dose of 3 mg/kg; 3) compound II gavaged daily (in water) at a dose of 10 mg/kg; 4) ezetimibe gavaged daily (in corn oil) at a dose of 5 mg/kg; 5) compound II fed daily as diet admix at a dose of approximately 15 mg/kg. Mice were housed individually and monitored daily for food consumption and body weight. Following eight days of feeding/drug administration, (and 1 hour following gavage of drug), nonfasted, unanesthetized animals were bled and plasma was isolated and flash-frozen at −80° C. for shipment and measurement of concentrations of Compound II and its metabolites. The following day (day 9), mice were gavaged with drug or control. One hour later, each mouse was gavaged with MCT oil containing [^14C]cholesterol and [^3H]sitostanol. Mice were housed individually in metabolic cages and ad libitum feeding and daily gavage of each drug was continued. Feces were collected daily from each animal for a period of 4 days. For each individual mouse, the 4-day feces were pooled, dried, saponified, extracted and counted.
Intestinal cholesterol absorption in age- and gender-matched C57BL/6 mice was determined by the fecal dual isotope ratio method. […] See, FIG. 10. […] Statistical analysis between groups was assessed by unpaired Student's t-test. Statistical significance was defined as a two-tailed probability of less than 0.05.

[3] = test system: human subjects; assay: Absorption of phytosterols (markers of cholesterol absorption) in human subjects, day 21; format: in vivo; conditions: oral daily dose, day 21, FIG. 11
Method: In another experiment, human subjects received an oral dose of Compound II at day 1 and daily thereafter and the effect of the drug was assessed on day 21. Phytosterols are poorly absorbed from diet, but are absorbed proportionally with dietary cholesterol and thus serve as good markers of cholesterol absorption.

[4] = test system: healthy male subjects; assay: Phase I multiple ascending dose study, 21 days; LDL particle size by GGE and AIM; format: in vivo, human; conditions: for predominant LDL particle size / proportion of small LDL particles: 50, 100 and 200 mg
Method: Thirty-six healthy male subjects were treated with the compound of Formula II at 50, 100, and 200 mg for 21 days. To determine the lipoprotein particle sizes in the subjects before and after administration of the compound, gradient-gel electrophoresis (GGE) and Airborne Ion Mobility (AIM) methods were used.
GGE was performed essentially as described in Krauss and Burke, J Lipid Res. 23:97-104 (1982) and La Belle, et al., J. Lipid Res. 38 690-700 (1997) as follows:
LDL particle diameters were determined by nondenaturing 2-14% polyacrylamide gradient gel electrophoresis in 0.09 M Tris/0.08 M borate buffer (pH 8.3), 3 mM EDTA at 8-10° C. Samples (whole plasma) were electrophoresed at 40 V for 15 min, then 80 V for 15 min, and then at 125 V for 24 h to allow all particles to run to their size exclusion limits. Gels were stained for protein with Sudan Black and scanned at 555 nm with a Transidyne RFT densitometer. Particle sizes were calculated from a calibration curve using a high molecular weight reference protyin mixture (Pharmacia Biotech., Piscataway, N.J.), 380 Å latex beads (Duke Scientific Corp., Palo Alto, Calif.) and lipoprotein calibrators that are frozen at −80° C. and included on each gel run. Plasma samples, stored at −80° C. and used as controls for gradient gel analysis procedures, were run in duplicate on each gel. Particle size of LDL peaks in the controls were measured within ±2 Å (coefficient of variation, +1%).
AIM was performed essentially as described in Caulfield, et al., Clin. Chem. 54:1307-1316 (2008), generally as follows:
Serum samples or controls were briefly mixed by vortex mixing, then 5 μl of sample or control was mixed with 20 μl of an albumin removal reagent [7.5 g/L Reactive green 19 dextran (RGD), Sigma-Aldrich; 2.5 g/L dextran sulfate, Sigma-Aldrich; and 0.5 g/L EDTA, Spectrum Chemicals] and incubated on ice for 15 minutes. After incubation, the sample mixture was overlaid on 200 μl deuterium oxide (Medical Isotopes) in a 42.2 ultracentrifuge tube (Beckman Coulter). The samples were ultracentrifuged at 10° C. for 135 min at 223 000 g (42 000 rpm), and then the top 85 μl (i.e., the lipid fraction) of the sample was removed. The samples were diluted 1:800 for HDL analysis using 25 mmol/L ammonium acetate, 0.5 mmol/L ammonium hydroxide, pH 7.4. For LDL analysis, samples were diluted 1:200 with the same diluent containing 5 μg/mL dextran sulfate to help prevent LDL particles from sticking to the capillary surfaces. Final dilutions were made in deep-well 96-well plates and placed in a Leap HTLC Pal autosampler (Eksigent) with the cooled stack maintained at 6° C.
The autosampler was connected to the electrospray generator (Model 3480; TSI) via methyl-deactivated silica capillary (50 μm i.d.; SGE). Flow was introduced by nano-LC pumps (Eksigent) running a mobile phase of 25 mmol/L ammonium acetate, 0.5 mmol/L ammonium hydroxide, pH 7.4. By means of a capillary metal union (Upchurch Scientific), an autosampler injected 10 μl sample at 6 μl/min into a transfer capillary (methyl-deactivated, SGE, 50 μm, 33 cm long). High voltage (2.1 kV) was applied to the metal capillary union located 33 cm upstream of the electrospray unit. The electrospray Taylor cone was monitored visually and amperometrically to ensure stability. After the sample had filled the capillary and reached the electrospray chamber, the flow was decreased to 200 nL/min and the data recording process was started. The gas (containing approximately 5% CO2) flowing into the electrospray chamber was regulated at 1.6 L/min. The electrosprayed particles passed through a particle-charge neutralizing chamber and then entered the differential mobility analyzer (DMA). Se, e.g., U.S. Pat. No. 7,259,018. Scan time was 2 min and covered a particle range of 17.2 to 542.0 Å. […]

[5] = test system: human subjects; assay: Effect on cholesterol synthesis in human subjects after 21 days; format: in vivo
Method: A series of experiments were performed to determine the effect of Compound II on cholesterol synthesis. Compound II was administered to human subjects and the effect on cholesterol ester, acyl-coenzyme A:cholesterol acyltransferase (ACAT) and Lecithin-cholesterol acyltransferase (LACAT) was determined after 21 days. […] The effect of treatment appeared similar between ACAT- and LCAT-derived cholesterol esters, indicating a reduction in cholesterol substrate.

[6] = Atorvastatin 20 mg, Week 0 (before treatment)
[7] = MBX-8025 50 mg, Week 0 (before treatment)
[8] = MBX-8025 100 mg, Week 0 (before treatment)
[9] = 21 days, listed as compound of Formula II
[10] = phase I multiple ascending doses samples, FIG. 1

Structure (SMILES): CC(C)c1c(C(=O)Nc2ccccc2)c(-c2ccccc2)c(-c2ccc(F)cc2)n1CC[C@@H](O)C[C@@H](O)CC(=O)O [Atorvastatin, reference compound]
- number of subjects having LDL Pattern A [1, 6]: 9
- number of subjects having LDL Pattern B [1, 6]: 15
- number of subjects having LDL Pattern I [1, 6]: 5
- number of subjects having LDL Pattern A ([1]; Atorvastatin 20 mg, Week 4): 12
- number of subjects having LDL Pattern B ([1]; Atorvastatin 20 mg, Week 4): 10
- number of subjects having LDL Pattern I ([1]; Atorvastatin 20 mg, Week 4): 6
- number of subjects having LDL Pattern A ([1]; Atorvastatin 20 mg, Week 8): 13
- number of subjects having LDL Pattern B ([1]; Atorvastatin 20 mg, Week 8): 13
- number of subjects having LDL Pattern I ([1]; Atorvastatin 20 mg, Week 8): 3
- HDL levels ([1]; FIG. 6): no effect

Structure (SMILES): CCOC(COc1ccc(C(F)(F)F)cc1)CSc1ccc(OCC(=O)O)c(C)c1 (centres unmarked) [Compound II]
- reduction in cholesterol absorption versus control (printed as negative change) ([2]; admix to diet, approximate dose 15 mg/kg/d, p<0.0006): −45%
- change in cholesterol absorption versus control ([2]; gavage, 3 mg/kg/d, no significant change): −8%
- reduction in cholesterol absorption versus control ([2]; gavage, 10 mg/kg/d, significant): 29.4%
- Stigmasterol [3]: not significantly affected
- campesterol [3]: significantly decreased
- β-sitosterol [3]: significantly decreased
- LDL pattern results compared with control group treated with Atorvastatin ([1]; 50 mg and 100 mg): superior
- number of subjects having pattern A (in words) ([1]; 100 mg): increase
- number of subjects having pattern B (in words) ([1]; 100 mg): large decrease
- Apo B-100 ([1]; FIG. 6): reduced
- HDL levels ([1]; FIG. 6): increased
- LDL ([1]; FIG. 6): reduced
- total cholesterol ([1]; FIG. 6): reduced
- triglycerides ([1]; FIG. 6): reduced
- percentage of individuals having LDL pattern A over time ([1]; FIG. 7): went up dramatically
- percentage of individuals having LDL pattern B over time ([1]; FIG. 8): went down dramatically
- number of subjects having LDL Pattern A [1, 7]: 8
- number of subjects having LDL Pattern B [1, 7]: 13
- number of subjects having LDL Pattern I [1, 7]: 7
- number of subjects having LDL Pattern A ([1]; MBX-8025 50 mg, Week 4): 24
- number of subjects having LDL Pattern B ([1]; MBX-8025 50 mg, Week 4): 3
- number of subjects having LDL Pattern I ([1]; MBX-8025 50 mg, Week 4): 0
- number of subjects having LDL Pattern A ([1]; MBX-8025 50 mg, Week 8): 25
- number of subjects having LDL Pattern B ([1]; MBX-8025 50 mg, Week 8): 2
- number of subjects having LDL Pattern I ([1]; MBX-8025 50 mg, Week 8): 2
- number of subjects having LDL Pattern A [1, 8]: 6
- number of subjects having LDL Pattern B [1, 8]: 20
- number of subjects having LDL Pattern I [1, 8]: 7
- number of subjects having LDL Pattern A ([1]; MBX-8025 100 mg, Week 4): 25
- number of subjects having LDL Pattern B ([1]; MBX-8025 100 mg, Week 4): 1
- number of subjects having LDL Pattern I ([1]; MBX-8025 100 mg, Week 4): 4
- number of subjects having LDL Pattern A ([1]; MBX-8025 100 mg, Week 8): 25
- number of subjects having LDL Pattern B ([1]; MBX-8025 100 mg, Week 8): 2
- number of subjects having LDL Pattern I ([1]; MBX-8025 100 mg, Week 8): 2
- shift of LDL subclass pattern ([4]; 50, 100 and 200 mg dosage, day 21 vs day 1, GGE): from LDL Pattern B or I to LDL Pattern A
- predominant LDL particle size ([4]; 21 days, listed as compound II): increased
- proportion of small LDL particles ([4]; 21 days, listed as compound II): lowered
- predominant LDL particle size [4, 9]: effectively increased
- proportion of small LDL particles [4, 9]: decreasing the amount of smaller LDL particles
- predominant LDL particle size ([4]; 21 days, listed as drawing 12): effective in improving
- VLDL particle size ([4]; 21 days): did not affect
- LDL particle distributions ([4]; 21 days, by dose): did affect LDL particle distributions in dose dependent fashion
- Apolipoprotein B [4, 10]: significantly lowered
- LDL-cholesterol [4, 10]: significantly lowered
- Lanosterol (cholesterol synthesis intermediate) in blood ([5]; FIG. 9): decreased in a dose-dependent fashion
- desmosterol (cholesterol synthesis intermediate) in blood ([5]; FIG. 9): decreased in a dose-dependent fashion
- lathosterol (cholesterol synthesis intermediate) in blood ([5]; FIG. 9): decreased in a dose-dependent fashion
- cholesterol concentrations (ACAT- and LCAT-derived cholesterol esters) ([5]; after 21 days): decreased cholesterol concentrations in a dose-dependent fashion

Structure (SMILES): O=C1[C@H](CC[C@H](O)c2ccc(F)cc2)[C@@H](c2ccc(O)cc2)N1c1ccc(F)cc1 [ezetimibe, reference compound]
- reduction in cholesterol absorption ([2]; gavage in corn oil, 5 mg/kg/d, positive control, p<0.0000005): 56.4%
